Measurements taken from patent US12351561B2, “Crystalline (2S,4R)-5-(5'-chloro-2'-fluoro-[1,1'-biphenyl]-4-yl)-2-(ethoxymethyl)-4-(3-hydroxyisoxazole-5-carboxamido)-2-methylpentanoic acid and uses thereof” (THERAVANCE BIOPHARMA R&D IP, LLC, priority 2016, dated 2025).
Like-named read-outs stand apart in the source and are kept apart here.

What was measured:
[1] = molecular target: human neprilysin (NEP) (Homo sapiens, UniProt P08473); test: in vitro human neprilysin inhibitor activity (pKi); type: biochemical
Excerpt: One measure of the ability of a compound to inhibit NEP activity is the inhibition constant (pKi). The pKi value is the negative logarithm to base 10 of the dissociation constant (Ki), which is typically reported in molar units. The compound of the invention has a pKi at NEP≥9.0.
The in vitro-to-in vivo extrapolation of drug behavior in a subject continues to improve (see, e.g., Chiba et al., AAPS J., 2009 June; 11 (2): 262-276). In the present invention, in vitro human neprilysin inhibitor activity was assessed in order to determine neprilysin inhibitory activity of Compound I and crystalline form I′. A threshold of pKi>9.0 was met. However, additional in vivo experiments were further performed in order to more accurately predict the behavior of Compound I and crystalline form I′ in a subject.

[2] = Assay 1: IV/PO pharmacokinetic study in monkeys; type: in vivo, male cynomolgus monkeys; conditions: for bioavailability / AUC(0-t): cynomolgus monkey, plasma; for AUC(0-t): read-out: AUClast Mean; for CLlast Mean: monkey
Protocol: A monkey PK study was performed with an appropriate mass of Compound I in volume of vehicle (e.g., 5% sodium bicarbonate, 5% dextrose in H2O, pH 7.4, for oral and IV and filtered through a […] PDVF syringe for IV) such that the final concentration was dosed at 1.0 mg/mL for both IV and PO.
Intravenous doses of Compound I were administered through an indwelling catheter in the cephalic vein followed by a saline flush of approximately 3 mL. Intravenous doses were administered at a volume of 1 mL/kg. Oral doses were delivered into the stomach using a syringe and gavage tube followed by a water flush of approximately 10 mL. Oral doses were administered at a volume of 2 mL/kg. Blood samples were collected from each animal at each time point (pre-dose, 0.083 h, 0.25 h, 0.5 h, 1 h, 2 h, 4 h, 6 h, 8 h, 12 h, and 24 h) via the cephalic, femoral, or sphenous vein through […]. All samples were collected into K2EDTA tubes and placed on ice. Samples were processed to plasma by centrifugation (3200 rpm, 10 minutes, 5° C.), and acidified with a final concentration of 2% acetic acid. Aliquots of plasma were transferred to a 96-well plate tubes and stored frozen (−70° C.) prior to bioanalysis.
Plasma concentrations of Compound I were determined by LC/MS/MS. Plasma study samples were vortexed and placed in a 96-well plate. The samples were extracted with 200 μL of acetonitrile with an internal standard. The extract was centrifuged for 10 minutes at 2809 RPM and 50 μL supernatant was mixed with 200 μL 0.2% formic acid in water. Samples (10-15 μL) were injected on a ThermoFisher HyPURITY™ (C18 50×2.1 mm) column with a flow rate of 0.35 mL/min. Mobile phase A consisted of water: acetonitrile: formic acid (95:5:0.1, v:v:v) and Mobile phase B consisted of methanol: acetonitrile: formic acid (50:50:0.1, v:v:v) (dog). Mobile phase A consisted of 0.2% formic acid in water and mobile phase B consisted of 0.2% formic acid in acetonitrile (rat and monkey). Pharmacokinetic parameters of Compound I were determined by non-compartmental analysis (Model 201 and Model 200 for IV and PO administration, respectively) using Phoenix WinNonlin Version 6.3 (Certara, Sunnyvale, CA) and using individual plasma concentration time profiles from 3 animals per treatment group.
Plasma clearance was determined from the intravenous arm of the study, and represents the rate at which plasma is cleared of drug. It is equal to the dose divided by the area under the plasma concentration-time curve. In addition to plasma clearance, it is also essential for an orally administered drug to reach efficacious systemic levels following oral delivery. Oral bioavailability is a measurement of plasma exposures following oral administration relative to exposures following intravenous administration.

[3] = Assay 3: Phase 1 single-ascending dose study, safety and tolerability; type: in vivo, human; conditions: healthy volunteers, single doses up to 600 mg
Protocol: A Phase 1 single-ascending dose (SAD) clinical trial of Compound I′ (Form I), which converts to or dissolves to provide its soluble form Compound I in the body, was conducted in order to assess neprilysin inhibition for the treatment of a range of cardiovascular and renal diseases, including, e.g., chronic kidney disease, diabetic nephropathy, acute and chronic heart failure, heart failure with reduced ejection fraction, heart failure with preserved ejection fraction, post-myocardial infarction asymptomatic left ventricular dysfunction (post-MI asymptomatic LVD), subacute heart failure and resistant and isolated systolic hypertension. Safety and tolerability, pharmacokinetic (support for QD/BID dosing and non-renal excretion), pharmacodynamic (test for target engagement biomarkers cGMP and ANP), food effect, and absolute oral bioavailability and renal elimination using a ^14C intravenous microtracer, inter alia, were tested.
The Phase 1 study was a double-blind, randomized placebo-controlled single ascending dose study in healthy male and female volunteers randomized in a 4:1 ratio. The study enrolled 56 healthy volunteers over multiple weeks for the ascending-dose portion, which included cohorts (n=10/cohort of 8 active and 2 placebo) administered single ascending doses of 50 mg, 100 mg, 200 mg, 400 mg and 600 mg. […]

[4] = Assay 4: Phase 1 multiple-ascending dose study, safety and tolerability; type: in vivo, human; conditions: healthy adult and elderly subjects, multiple oral doses up to 14 days
Protocol: (§1) A Phase 1 multiple-ascending dose (MAD) clinical trial of Compound I′ (Form I) was conducted in order to further evaluate the safety, tolerability, pharmacokinetics of Compound I and its metabolite, pharmacodynamics of Compound I, food effect, absolute oral bioavailability and renal elimination of multiple ascending oral doses of Compound I′ in healthy adult and elderly subjects. As discussed below, the reported data confirms the results stemming from the SAD clinical trial.
(§2) The Phase 1 study was a double-blind, randomized placebo-controlled multiple ascending dose study in healthy male and female volunteers randomized in a 4:1 ratio. The study enrolled 50 healthy adult (19-55 years old) and elderly (65-80 years old) volunteers over multiple weeks for the ascending-dose portion, which included cohorts (n=10/cohort of 8 active and 2 placebo) administered (1) ascending doses of 50 mg, 100 mg, and 200 mg, (2) a dose of 10 mg studied in parallel with 200 mg for PK/PK, and (3) a dose of 100 mg for one elderly cohort. […] Additionally, renal elimination of Compound I was neglible after multiple dosing, e.g., <1% was observed on Day 1 and Day 14 for all subjects.

[5] = Assay 4: Phase 1 multiple-ascending dose study, renal elimination; type: in vivo; conditions: human, after multiple dosing, Day 1 and Day 14, all subjects
Protocol: as §1, §2

[6] = molecular target: T1, NEP (Homo sapiens, UniProt P08473); test: Assay 4.1: NEP activity in human (cGMP), multiple-ascending dose study; type: in vivo; conditions: healthy adult and elderly subjects, 10-200 mg once daily, Day 14, over 24 h
T1 construct: from tissue; host or cells: healthy human volunteers (in vivo)
Protocol: as §2
Part of the MAD clinical studies was to determine the mechanism/duration of action of Compound I after dosing in humans.

T1 sequence (P08473 whole entry): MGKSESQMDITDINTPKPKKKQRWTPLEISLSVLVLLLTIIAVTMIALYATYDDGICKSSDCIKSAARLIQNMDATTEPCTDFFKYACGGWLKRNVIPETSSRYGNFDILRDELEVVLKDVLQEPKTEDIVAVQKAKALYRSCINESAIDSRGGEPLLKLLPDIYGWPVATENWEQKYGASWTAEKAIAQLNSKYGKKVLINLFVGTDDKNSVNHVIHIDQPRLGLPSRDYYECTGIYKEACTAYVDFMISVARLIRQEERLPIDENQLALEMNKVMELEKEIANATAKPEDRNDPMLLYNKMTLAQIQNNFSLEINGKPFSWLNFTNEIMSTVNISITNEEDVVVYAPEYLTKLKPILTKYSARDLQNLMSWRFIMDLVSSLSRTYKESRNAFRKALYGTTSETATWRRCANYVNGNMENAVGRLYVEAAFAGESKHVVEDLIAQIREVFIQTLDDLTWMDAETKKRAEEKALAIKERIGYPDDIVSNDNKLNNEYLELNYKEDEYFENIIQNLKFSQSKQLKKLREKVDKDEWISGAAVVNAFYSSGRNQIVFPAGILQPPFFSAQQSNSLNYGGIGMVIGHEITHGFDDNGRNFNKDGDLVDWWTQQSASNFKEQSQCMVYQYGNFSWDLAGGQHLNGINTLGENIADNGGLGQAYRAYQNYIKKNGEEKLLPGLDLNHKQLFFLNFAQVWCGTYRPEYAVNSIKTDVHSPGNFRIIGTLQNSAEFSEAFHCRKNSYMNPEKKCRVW
human neprilysin (NEP), sequence (P08473 whole entry): as above

- Ki [1]: < 1 nM
- bioavailability ([2]; po, higher doses (30 and 100 mg/kg), three different formulations, data not shown, read-out: mean bioavailability): 55 to 83%
- bioavailability ([2]; male, IV 1 mg/kg, PO 2 mg/kg, read-out: Oral Bioavailability Mean): 41.8%
- AUC(0-t) ([2]; male, IV, 1 mg/kg): 2290 ng·h/mL
- AUC(0-t) ([2]; male, PO, 2 mg/kg): 1910 ng·h/mL
- CLlast Mean ([2]; IV, 1 mg/kg): 6.33 mL/min/kg
- CLlast Mean ([2]; PO, 2 mg/kg): 21.8 mL/min/kg
- renal elimination [5]: < 1%
Compound: CCOC[C@](C)(C[C@@H](Cc1ccc(-c2cc(Cl)ccc2F)cc1)NC(=O)c1cc(O)no1)C(=O)O [Compound I, (2S,4R)-5-(5′-Chloro-2′-fluoro-[1,1′-biphenyl]-4-yl)-2-(ethoxymethyl)-4-(3-hydroxyisoxazole-5-carboxamido)-2-methylpentanoic Acid]
- tolerability [3]: well-tolerated
- tolerability [4]: generally well-tolerated
- change in mean plasma cGMP from baseline [6]: sustained increase in mean plasma cGMP over 24 h
